Test results as given in ChEMBL document CHEMBL5352506, “The Zinc-Binding Group Effect: Lessons from Non-Hydroxamic Acid Vorinostat Analogs” (J Med Chem, 2023).

How the values were obtained:
Histone deacetylase 3 = Histone deacetylase 3 (Homo sapiens, UniProt O15379); assay: Inhibition of human recombinant HDAC3 using ArgHisLysLys(Ac) as substrate by fluorescence based analysis
Histone deacetylase 4 = Histone deacetylase 4 (Homo sapiens, UniProt P56524); assay: Inhibition of human recombinant HDAC4 using ArgHisLysLys(Ac) as substrate by fluorescence based analysis
[1] = target: T1, Protein deacetylase HDAC6 (Homo sapiens, UniProt Q9UBN7); assay: Inhibition of human recombinant HDAC6 using ArgHisLysLys(Ac) as substrate by fluorescence based analysis
T1 sequence (Q9UBN7 whole entry): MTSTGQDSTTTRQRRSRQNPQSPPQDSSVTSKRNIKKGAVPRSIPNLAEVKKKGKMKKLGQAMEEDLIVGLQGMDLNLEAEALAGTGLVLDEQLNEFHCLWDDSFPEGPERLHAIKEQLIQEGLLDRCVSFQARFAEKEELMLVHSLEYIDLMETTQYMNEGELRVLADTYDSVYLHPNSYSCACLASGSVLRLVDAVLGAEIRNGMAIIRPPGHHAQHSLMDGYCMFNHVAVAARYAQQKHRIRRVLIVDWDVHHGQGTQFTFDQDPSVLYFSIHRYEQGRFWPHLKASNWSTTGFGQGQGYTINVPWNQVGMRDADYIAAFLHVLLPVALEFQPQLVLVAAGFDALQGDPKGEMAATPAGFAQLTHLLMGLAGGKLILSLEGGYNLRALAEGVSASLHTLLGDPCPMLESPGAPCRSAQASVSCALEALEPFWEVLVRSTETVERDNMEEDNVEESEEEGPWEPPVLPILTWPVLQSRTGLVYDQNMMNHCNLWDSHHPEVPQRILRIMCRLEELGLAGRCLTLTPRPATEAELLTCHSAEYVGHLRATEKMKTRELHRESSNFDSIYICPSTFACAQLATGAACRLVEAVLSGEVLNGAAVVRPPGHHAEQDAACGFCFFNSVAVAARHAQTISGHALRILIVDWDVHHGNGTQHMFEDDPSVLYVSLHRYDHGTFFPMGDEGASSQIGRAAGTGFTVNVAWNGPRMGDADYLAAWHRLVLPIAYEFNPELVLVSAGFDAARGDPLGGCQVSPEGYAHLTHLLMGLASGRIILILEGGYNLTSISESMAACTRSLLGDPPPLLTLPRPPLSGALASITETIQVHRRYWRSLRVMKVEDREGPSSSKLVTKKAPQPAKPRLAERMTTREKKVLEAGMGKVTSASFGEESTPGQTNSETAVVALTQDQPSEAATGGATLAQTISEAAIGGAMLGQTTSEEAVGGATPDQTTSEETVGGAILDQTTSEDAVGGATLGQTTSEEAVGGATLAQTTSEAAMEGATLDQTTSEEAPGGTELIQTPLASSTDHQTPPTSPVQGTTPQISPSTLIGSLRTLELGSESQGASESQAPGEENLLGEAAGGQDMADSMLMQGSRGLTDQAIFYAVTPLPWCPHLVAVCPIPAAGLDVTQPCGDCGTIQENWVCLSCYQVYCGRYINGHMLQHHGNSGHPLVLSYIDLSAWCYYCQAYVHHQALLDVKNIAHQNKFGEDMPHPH

Histone deacetylase 9 = Histone deacetylase 9 (Homo sapiens, UniProt Q9UKV0); assay: Inhibition of human recombinant HDAC9 using ArgHisLysLys(Ac) as substrate by fluorescence based analysis
Chain of Histone deacetylase 9 (Q9UKV0 whole entry): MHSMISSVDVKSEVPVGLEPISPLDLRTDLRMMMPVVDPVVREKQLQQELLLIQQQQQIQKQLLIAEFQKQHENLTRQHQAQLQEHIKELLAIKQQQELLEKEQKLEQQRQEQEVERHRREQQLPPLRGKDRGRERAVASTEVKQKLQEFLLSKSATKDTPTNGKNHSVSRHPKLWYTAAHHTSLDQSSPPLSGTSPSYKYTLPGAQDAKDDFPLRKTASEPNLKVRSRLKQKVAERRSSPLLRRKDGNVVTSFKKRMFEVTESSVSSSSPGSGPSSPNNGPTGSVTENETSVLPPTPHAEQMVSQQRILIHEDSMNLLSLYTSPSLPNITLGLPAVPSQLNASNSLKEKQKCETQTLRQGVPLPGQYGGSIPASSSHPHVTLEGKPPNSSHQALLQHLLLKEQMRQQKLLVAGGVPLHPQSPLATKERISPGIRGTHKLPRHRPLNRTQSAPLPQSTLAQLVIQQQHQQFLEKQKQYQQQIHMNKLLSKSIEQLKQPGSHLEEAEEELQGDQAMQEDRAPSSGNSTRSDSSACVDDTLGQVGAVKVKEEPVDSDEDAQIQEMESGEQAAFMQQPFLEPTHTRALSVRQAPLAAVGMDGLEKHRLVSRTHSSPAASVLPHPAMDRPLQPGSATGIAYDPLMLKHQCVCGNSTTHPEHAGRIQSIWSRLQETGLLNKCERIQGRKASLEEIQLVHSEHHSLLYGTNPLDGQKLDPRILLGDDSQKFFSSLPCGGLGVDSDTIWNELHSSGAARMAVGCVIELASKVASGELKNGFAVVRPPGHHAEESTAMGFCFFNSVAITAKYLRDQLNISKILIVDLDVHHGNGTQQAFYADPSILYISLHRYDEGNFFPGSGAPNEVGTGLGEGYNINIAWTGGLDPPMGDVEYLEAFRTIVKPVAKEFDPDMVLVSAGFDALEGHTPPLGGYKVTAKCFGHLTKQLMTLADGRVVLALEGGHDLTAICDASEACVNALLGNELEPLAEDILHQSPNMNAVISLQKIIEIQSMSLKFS

Chain of Histone deacetylase 4 (P56524 whole entry): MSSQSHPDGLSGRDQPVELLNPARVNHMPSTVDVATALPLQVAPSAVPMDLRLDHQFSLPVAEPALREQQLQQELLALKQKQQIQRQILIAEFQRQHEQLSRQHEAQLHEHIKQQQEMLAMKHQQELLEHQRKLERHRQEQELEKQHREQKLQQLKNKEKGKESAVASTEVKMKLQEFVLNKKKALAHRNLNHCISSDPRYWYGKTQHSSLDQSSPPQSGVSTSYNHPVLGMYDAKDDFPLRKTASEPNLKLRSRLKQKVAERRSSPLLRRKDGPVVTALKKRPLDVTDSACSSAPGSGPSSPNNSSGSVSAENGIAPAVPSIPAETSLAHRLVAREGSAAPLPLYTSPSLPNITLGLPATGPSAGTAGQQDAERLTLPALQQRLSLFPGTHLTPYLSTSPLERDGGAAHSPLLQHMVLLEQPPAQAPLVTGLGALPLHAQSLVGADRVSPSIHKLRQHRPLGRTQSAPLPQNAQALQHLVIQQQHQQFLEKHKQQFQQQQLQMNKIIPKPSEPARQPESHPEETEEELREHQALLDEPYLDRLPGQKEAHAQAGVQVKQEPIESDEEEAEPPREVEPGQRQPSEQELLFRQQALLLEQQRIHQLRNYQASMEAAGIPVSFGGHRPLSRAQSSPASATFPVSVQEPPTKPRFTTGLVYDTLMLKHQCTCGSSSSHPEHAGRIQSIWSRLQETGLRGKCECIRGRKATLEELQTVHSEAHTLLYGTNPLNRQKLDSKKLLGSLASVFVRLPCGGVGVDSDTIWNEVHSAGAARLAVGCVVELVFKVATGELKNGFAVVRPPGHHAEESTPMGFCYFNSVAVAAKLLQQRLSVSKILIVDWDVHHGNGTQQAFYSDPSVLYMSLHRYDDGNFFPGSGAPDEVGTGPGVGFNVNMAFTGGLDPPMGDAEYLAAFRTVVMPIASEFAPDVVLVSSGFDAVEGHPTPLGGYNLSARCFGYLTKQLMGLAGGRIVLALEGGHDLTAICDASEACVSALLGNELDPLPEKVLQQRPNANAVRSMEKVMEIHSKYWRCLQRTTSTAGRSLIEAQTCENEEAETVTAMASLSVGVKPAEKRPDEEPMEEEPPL
Chain of Histone deacetylase 3 (O15379 whole entry): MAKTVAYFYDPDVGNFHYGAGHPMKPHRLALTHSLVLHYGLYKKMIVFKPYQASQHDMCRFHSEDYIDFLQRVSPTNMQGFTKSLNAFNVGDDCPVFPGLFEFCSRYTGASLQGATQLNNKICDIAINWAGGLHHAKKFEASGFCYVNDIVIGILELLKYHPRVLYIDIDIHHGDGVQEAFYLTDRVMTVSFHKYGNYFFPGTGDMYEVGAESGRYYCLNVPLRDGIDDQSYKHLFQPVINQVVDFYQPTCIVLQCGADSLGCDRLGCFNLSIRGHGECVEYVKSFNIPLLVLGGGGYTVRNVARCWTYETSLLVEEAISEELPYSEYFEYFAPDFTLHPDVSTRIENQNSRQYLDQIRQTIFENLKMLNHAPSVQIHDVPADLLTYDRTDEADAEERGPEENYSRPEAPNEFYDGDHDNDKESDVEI

SMILES | IC50 (Histone deacetylase 3) [µM] | IC50 (Histone deacetylase 4) [µM] | IC50 [1] [µM] | IC50 (Histone deacetylase 9) [µM]
O=C(CCCCCC1CNC1=O)Nc1ccccc1 (stereo unspecified) | > 1000 | > 1000 | 74.5 | > 1000
O=C(CCCCC[C@@H]1CN(O)C1=O)Nc1ccccc1 | > 1000 | > 1000 | 132 | > 1000
Nc1ccccc1N1CC(CCCCCC(=O)Nc2ccccc2)C1=O (stereo unspecified) | > 1000 | > 1000 | > 1000 | > 1000
O=C(CCCCC[C@H]1CN(O)C1=O)Nc1ccccc1 | > 1000 | > 1000 | 174 | > 1000
